Assay results: the supplement of paper PMC5908809

How the values were obtained:
[1] = system: DERL-7 (IL-2 2.5 ng/mL); assay: percent inhibition of viability; higher = more inhibition; conditions: 72 h
[2] = system: normal primary NK cells, pool 2 (3 donors) (IL-2 2.5 ng/mL); assay: as above; conditions: 72 h
[3] = system: normal primary NK cells, pool 1 (3 donors) (IL-2 2.5 ng/mL); assay: as above; conditions: 72 h
[4] = system: KAI3 (IL-2 2.5 ng/mL); assay: as above; conditions: 72 h
[5] = system: NK-YS (IL-2 2.5 ng/mL); assay: as above; conditions: 72 h
[6] = system: IMC-1 (IL-2 20 ng/mL); assay: as above; conditions: 72 h
[7] = system: SNK-6 (IL-2 2.5 ng/mL); assay: as above; conditions: 72 h
[8] = system: normal primary NK cells, pool 1 (3 donors), resting (IL-2 0 ng/mL); assay: as above; conditions: 72 h
[9] = system: NK-92 (IL-2 2.5 ng/mL); assay: as above; conditions: 72 h
[10] = system: normal primary NK cells, pool 3 (3 donors) (IL-2 2.5 ng/mL); assay: as above; conditions: 72 h
[11] = system: KHYG-1 (IL-2 2.5 ng/mL); assay: as above; conditions: 72 h
[12] = system: NKL (IL-2 2.5 ng/mL); assay: as above; conditions: 72 h
[13] = system: YT (IL-2 2.5 ng/mL); assay: as above; conditions: 72 h
[14] = system: normal NK cells expanded with K562-aAPC; assay: drug sensitivity score (DSS) (DSS units); higher = more sensitive; extreme values may be limits of the assay; conditions: 72 h; IL-2 2.5 ng/mL
Method: (§1)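 Drug sensitivity and resistance testing on K562-aAPC-expanded normal NK cells: 5 concentrations (10-fold steps over a 10,000-fold range), 72 h at 37 °C, viability by CellTiter-Glo normalised to DMSO and benzethonium chloride controls; DSS from the fitted curve.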

[15] = system: normal NK cells expanded with K562-aAPC; assay: percent inhibition of viability; higher = more inhibition; conditions: 72 h, IL-2 2.5 ng/mL
Method: as §1

[16] = system: DERL-7 (IL-2 2.5 ng/mL); assay: drug sensitivity score (DSS) (DSS units); higher = more sensitive; extreme values may be limits of the assay; conditions: 72 h
[17] = system: normal primary NK cells, pool 2 (3 donors) (IL-2 2.5 ng/mL); assay: as above; conditions: 72 h
[18] = system: normal primary NK cells, pool 1 (3 donors) (IL-2 2.5 ng/mL); assay: as above; conditions: 72 h
[19] = system: KAI3 (IL-2 2.5 ng/mL); assay: as above; conditions: 72 h
[20] = system: NK-YS (IL-2 2.5 ng/mL); assay: as above; conditions: 72 h
[21] = system: IMC-1 (IL-2 20 ng/mL); assay: as above; conditions: 72 h
[22] = system: SNK-6 (IL-2 2.5 ng/mL); assay: as above; conditions: 72 h
[23] = system: normal primary NK cells, pool 1 (3 donors), resting (IL-2 0 ng/mL); assay: as above; conditions: 72 h
[24] = system: NK-92 (IL-2 2.5 ng/mL); assay: as above; conditions: 72 h
[25] = system: normal primary NK cells, pool 3 (3 donors) (IL-2 2.5 ng/mL); assay: as above; conditions: 72 h
[26] = system: KHYG-1 (IL-2 2.5 ng/mL); assay: as above; conditions: 72 h
[27] = system: NKL (IL-2 2.5 ng/mL); assay: as above; conditions: 72 h
[28] = system: YT (IL-2 2.5 ng/mL); assay: as above; conditions: 72 h

O=C(c1cccc(Cl)c1F)N1CCN(Cc2cccc(Nc3nccs3)n2)CC1 [MK-8745] (max concentration tested 2500 nM)
percent inhibition of viability [%]
Conditions	0.25 nM	2.5 nM	25 nM	250 nM	2500 nM
[1]	-8.45	2.62	1.62	22	83.1
[2]	-9.44	-9.06	-12.7	-6.66	-1.81
[3]	-9.49	-9.51	-7.79	0.54	-4.11
[4]	-2.71	2.86	-1.01	18.3	36.5
[5]	-0.85	-3.89	-0.06	38.4	61.3
[6]	-1.25	-4.64	-0.96	2.91	66.8
[7]	-0.59	0.91	-4.8	47.9	76.6
[8]	-8.12	-10.6	-11.2	9.28	-1.15
[9]	-12.1	-7.81	-0.68	8.86	26.2
[10]	-9.39	-6.67	-11.6	-9.93	-1.62
[11]	-1.65	-5.36	-0.69	6.09	44.4
[12]	-14.5	-12.8	-23.9	17.2	40.3
[13]	-0.09	-1.63	-2.07	7.04	49.4
[15]	-2.18	-4.25	-9.82	1.43	48.4

Conditions	drug sensitivity score
[14]	2.71
[16]	7.96
[17]	0.89
[18]	0
[19]	4.06
[20]	7.96
[21]	4.06
[22]	9.92
[23]	0
[24]	2.22
[25]	0.89
[26]	3.3
[27]	4.29
[28]	3.79
